# Test results from patent publication US20260275280A1, “DIRECTED DIFFERENTIATION PROTOCOLS TO DERIVE BONE FIDE SPINAL SENSORY INTERNEURONS” (THE REGENTS OF THE UNIVERSITY OF CALIFORNIA, priority 2022, published 2026).
# “Also recorded” adds a separate entry of the source.
# B1: Noggin: a BMP signaling inhibitor (protein, UniProt Q13253 28-232, looked up)
# Noggin: QHYLHIRPAPSDNLPLVDLIEHPDPIFDPKEKDLNETLLRSLLGGHYDPGFMATSPPEDRPGGGGGAAGGAEDLAELDQLLRQRPSGAMPSEIKGLEFSEGLAQGKKQRLSKKLRRKLQMWLWSQTFCPVLYAWNDLGSRFWPRYVKVGSCFSKRSCSVPEGMVCKPSKSVHLTVLRWRCQRRGGQRCGWIPIQYPIISECKCSC
# B2: BMP4: human recombinant bone morphogenetic protein 4 (protein, UniProt P12644 293-408, looked up)
# Bone morphogenetic protein 4: SPKHHSQRARKKNKNCRRHSLYVDFSDVGWNDWIVAPPGYQAFYCHGDCPFPLADHLNSTNHAIVQTLVNSVNSSIPKACCVPTELSAISMLYLDEYDKVVLKNYQEMVVEGCGCR
# What was measured:
# CHIR-expanded EBs = assay: Differentiation of CHIR-expanded EBs on Matrigel (IHC, RT-qPCR at day 10); format: cell-based, mouse; conditions: DAPT added
# Protocol: Embryoid body (EB) differentiation: To induce differentiation, EBs were dissociated into smaller clumps by a 5-7-minute treatment with cold 0.25% Trypsin (Gibco), followed by trituration. Trypsin was neutralized with 1:1 addition of Trypsin inhibitor (Sigma-Aldrich) and cells were pelleted by centrifugation at 1000RPM. Cell pellets were resuspended in N2/B27 medium (without growth factors) and plated onto a Matrigel precoated plate. In our experience, the single cell suspension of 100-150 EBs provided enough cells to seed one 24-well plate. […] At the end of 10 days, multiple neural processes can be visualized by phase contrast microscopy and cultures were either fixed with 4% PFA for immunohistochemistry or lysed to extract RNA in RLT buffer (Qiagen). […] CHIR withdrawal), or DAPT, a pro-differentiation agent (Crawford and Roelink, 2007) (FIG. 7J). […] This strategy was successful at restoring almost all dI identities in cultures taken from EBs both at the earliest passage and at the latest passage assessed (passage 7;
# Wnt/β-catenin signaling = assay: Inhibition of Wnt/β-catenin signaling during dI differentiation (IHC and RT-qPCR at day 9); format: cell-based, mouse
# Protocol: (§1) The mouse ESC line, MM13, was routinely maintained in ES cell media (DMEM+20% FBS) with 100u/ml of mouse leukocyte inducing factor (LIF). […] To prepare cells for the differentiation, ESC colonies were dissociated with 0.25% trypsin and plated on gelatin coated plates at 1:10 dilution to reduce MEF transfer. Cells cultured on gelatin coated plates and allowed to proliferate for 1-2 days. To initiate differentiation, cells were plated on 0.1% gelatin coated 24-well CellBIND dishes (Corning) at 20,000 cells/ml density in 0.5 ml/well N2/B27 medium that contains 10 ng/ml basic fibroblast growth factor (bFGF). The N2/B27 medium contains 1:1 portions of Advanced Dulbecco's modified Eagle Media (DMEM) F12 (Hyclone) and Neurobasal media (Thermo Fisher Scientific) supplemented with 0.5×N2, 1×B27 supplement (with Vitamin A), 2 mM L-glutamine, 0.1 mM 2-mercaptoethanol (ME), and 1% BSA. On day 1, small colonies of cells can be observed attached to the bottom of the wells. On day 2, cells were supplemented with 10 ng/ml bFGF and 5 μM CHIR99021 for 24 hours to induce a neuromesodermal identity (Gouti et al., 2014). On day 3, media was changed as follows: for protocol 1, cells were exposed to 100 nM RA for 48 hrs. For protocol 2, 10 ng/ml human recombinant BMP4 (Thermo Fisher Scientific) was added concomitantly with 100 nM RA (RA+BMP4) for 48 hrs. For protocol 3, cells were exposed to 100 nM RA for 24 hrs, followed by a pulse of RA+BMP4 for another 24 hours. To induce terminal differentiation in all three conditions, the medium containing growth factors was replaced with basic N2/B27 medium at day 5, and cell allowed to differentiate to day 9. At the end of the differentiation, the cultures were fixed for immunohistochemical analysis or lysed to obtain RNA for RNA-Seq or quantitative reverse transcriptase PCR analysis.
# Immunohistochemistry: For 2d differentiations, adherent cultures were first washed with 1×PBS and fixed with fresh cold 4% PFA for 10 minutes in the well. Following fixation, cultures were washed twice with 1×PBS to remove any remaining PFA. Cells were blocked with 1×PBS with 1% heat inactivated horse serum for 1 hour and primary antibodies are added in the blocking solution for an overnight incubation at 4C. Following washes, species appropriate secondary antibodies (Jackson Immuno Research Laboratories) were added in 1× PBT (PBS+0.1% […]) for 1 hr. The cultures were then washed with 1× PBT to remove traces of secondary antibodies and counterstained with DAPI to stain nuclei. Plates were then imaged on Zeiss LSM800 inverted confocal microscope at 10× magnification.
# (§2) Quantitative (a) RT-PCR analysis: RNA was isolated with RNeasy Mini Kit (Qiagen, cat no. 74104), and converted to cDNA using Superscript IV First Strand Synthesis kit (Thermo Fisher Scientific). qRT-PCR was performed using SYBR Green PCR Master Mix (Applied Biosystems) on Roche 480 Lightcycler (Roche). The relative fold expression was calculated using 2-AACt method of comparing the expression of the target gene with that of the housekeeping gene glyceraldehyde 3-phosphate dehydrogenase (Gapdh). All experiments were repeated at least 2-3 times (technical replicates) from at least two independent differentiations (biological replicates), and data is represented as mean±SEM.
# To assess the role of canonical Wnt signaling in dI fate specification, we added endo-IWR1 (IWR1e), a small molecule inhibitor which blocks p-catenin function (Chen et al., 2009) to dPs from day 4-6 (FIG. 5A). By day 9, the RA+BMP4 condition robustly induces dlis-dI3s (FIG. 5F-51, 5N-5P).
# hESCs = conditions: added to the cell dissociation media (Watanabe et al., 2007, Pettinato et al., 2015); cited from earlier work
# mESCs = assay: NMP induction from mESCs with bFGF and CHIR (Sox2/T expression); format: cell-based, mouse; conditions: day 2 (48 hr bFGF alone) / day 3 (further 24 hr bFGF and CHIR)
# Protocol: as §1, with “For protocol 2, 10 ng/ml human recombinant BMP4 (Thermo Fisher Scientific) was added concomitantly with 100 nM RA (RA+BMP4) for 48 hrs. For protocol 3, cells were exposed to 100 nM RA for 24 hrs, followed by a pulse of RA+BMP4 for another 24 hours. To induce terminal differentiation in all three conditions, the medium containing growth factors was replaced with basic N2/B27 medium at day 5, and cell allowed to differentiate to day 9.” left out, “analysis. […]” for “analysis.”
# Wnt-signaling genes = assay: RT-qPCR of selected Wnt genes at day 5 (RA±BMP4, Noggin); format: cell-based, mouse
# Protocol: as §2
# Additionally, we also found enriched GO terms related to Wnt signaling across three functional categories (FIG. 4C). […] (FIGS. 4D, 4E, 12B). Selected Wnt-signaling genes were further assessed in a qPCR analysis of day 5 NMPs to validate whether they are BMP4-responsive.
# [1] = system: mESCs-derived NMPs / NPCs; assay: Bulk RNA-Seq differential expression and qRT-PCR after RA or RA+BMP4 treatment; format: cell-based, mouse
# Protocol: Bulk-RNA sequencing and data processing: Total cell lysate was obtained in buffer RLT (Qiagen) at different time points from three independent differentiations (biological replicates) conducted parallelly. RNA extraction was performed using RNeasy mini kit (Qiagen) and the quality was determined using Agilent Technologies 2100 Bioanalyzer and only samples with a RIN score >8.0 were sequenced. Stranded libraries were constructed using Universal plus mRNA sequencing kit (NuGEN) and sequenced onto 2 lanes of NovaseqS1 to generate 30 million reads/sample. Obtained reads were aligned to the latest mouse reference genome (mm10) using the STAR spliced read aligner. Pearson correlation and principal component analysis (PCA) was performed to determine the similarities among the samples and replicates. Differentially expressed genes were identified using DESeq and EdgeR package on R platform. The candidate genes were selected using cutoff false discovery rate (FDR <0.05) and log fold change (>2). Differentially expressed gene lists were further subjected to Enrichr, Metascape (Zhou et al., 2019) and DAVID functional annotation tools to identify enriched gene ontology (GO) categories.
# as §2
# We took advantage of the directed differentiation protocols to investigate the unresolved mechanisms by which RA and BMP direct dI fate specification. To further validate the use of a stem cell model, we first assessed the genetic basis of the fate decisions mediated by RA signaling. During the 24 hr pulse of RA at day 3, Pax3 levels gradually increase, while T expression concomitantly declines (FIG. 12A). […] To identify the transcriptional changes occurring during this first commitment step, we performed bulk RNA-Seq at day 3 (NMP state), day 3.25 (early transcriptional response to RA) and day 4 (dP state1) (FIG. 11B).
# We hypothesized that the addition of BMP4 to NPCs in dP state1, directs them to a more dorsal dP state, i.e. dP state2 (FIG. 11A). To define the transcriptional changes occurring after BMP4 addition, we performed bulk RNA-Seq at day 4 (dP state1), day 4.25 (early transcriptional response to RA+BMP4) and at day 5 (dP state2) (FIG. 4A). […] 78 genes, out of 411, were common between both time points (FIGS. 4B, 13B). Focusing on these common genes, we identified enriched functional processes using GO analyses. The GO terms included the BMP signaling pathway (FIG. 4C, Table 3), confirming that the analysis identified BMP responsive genes.
# [2] = inhibitor added to RA+BMP4 (protocol 3) from day 4, 48 hours, day 9
molecule,measurement,setting,value
C[C@H](NC(=O)Cc1cc(F)cc(F)c1)C(=O)N[C@H](C(=O)OC(C)(C)C)c1ccccc1 [DAPT],Tuj1+ neurites,"CHIR-expanded EBs; day 10, IHC",increased sprouting of Tuj^+ neurites; also recorded: modest effect increasing the number of Tuj1+neurites
same,NeuN and Tubb3 expression compared to DMSO,"CHIR-expanded EBs; day 10, RT-qPCR",did not significantly augment NeuN and Tubb3 expression
Oc1nc(-c2ccc(C(F)(F)F)cc2)nc2c1CSCC2 [XAV939],dI1 and dI2 differentiation,Wnt/β-catenin signaling; [2],most strongly suppresses the differentiation of the BMP4-dependent dI1/dI2s
same,dI3 differentiation,Wnt/β-catenin signaling; [2],more modest effect on dI3s
same,"dI4, dI5, dI6 fates",Wnt/β-catenin signaling; [2],increase in the expression of dI4-dI6 specific genes
same,"dP markers Pax3, Pax7, Olig3",Wnt/β-catenin signaling; inhibitor added to RA+BMP4 condition,prevents both the suppression of Pax7+dPs and induction of Olig3+dPs
C[C@@H](N)[C@H]1CC[C@H](C(=O)Nc2ccncc2)CC1 [Y-27632],apoptosis upon dissociation and EB formation,hESCs,significantly inhibit apoptosis and enhance the EB formation
bFGF: human basic fibroblast growth factor,Expression of Sox2 and T,mESCs,upregulate Sox2 but not T
B1,upregulation of Wnt expression,Wnt-signaling genes; Noggin concomitantly added with BMP4 on day 4,upregulation of Wnt expression was suppressed
B2,upregulated genes common between both time points,[1]; 6 hrs and 24 hrs of BMP4+RA treatment,78 genes
same,genes upregulated,[1]; 6 hrs of BMP4 addition (day 4.25) vs day 4,106 genes
same,genes upregulated,[1]; 24 hrs of BMP4 exposure (day 5) vs day 4,305 genes
same,expression of selected Wnt-signaling genes,"Wnt-signaling genes; day 5, addition of BMP4 compared to RA alone",expression of all genes tested significantly increased
